# Assays:
# Jurkat = assay: Hoechst 33342 nuclear staining, Jurkat; assay type: cell-based, human; conditions: 48 h
# Experimental: (§1) This assay is performed in 96 well tissue culture plates. Appropriate number of cells (adherent cells: 3-5*10^3, suspension cells: 8-10*10^3) are being seeded out in 80 μl complete medium. Adherent cells are incubated for 24 h for proper spreading out before addition of test compounds while suspension cells are immediately treated with test compounds after seeding out. The test compounds are added in 20 μl complete medium containing max 5% DMSO. The final compound concentrations in the assays are 10 μM, 3 μM, 1 μM and 0.3 μM, respectively. […] The assay plates are then further incubated for 30 minutes and subsequently analyzed with a standard inverted fluorescence microscope.
# (§2) The readout allows the determination of the fraction of apoptotic nuclei as well as other morphological criteria specific for apoptosis as a function of the treatment. The following scores are used: 0 relating to no activity, 1 relating to weak activity comprising less than 50% of the cells and score 2 relating to strong activity comprising more than 50% of the cells.
# Jily = assay: Hoechst 33342 nuclear staining, Jily; assay type: cell-based; conditions: 48 h
# Experimental: as §1, §2
# PBLs = assay: Hoechst 33342 nuclear staining, PBLs; assay type: cell-based; design: key: 0 = no activity, 1 = weak (<50% of cells), 2 = strong (>50% of cells); conditions: 48 h
# Experimental: as §1, §2
# HeLa = assay: Hoechst 33342 nuclear staining, HeLa; assay type: cell-based, human; conditions: 48 h
# Experimental: as §1, §2
# H460 = assay: Hoechst 33342 nuclear staining, H460; assay type: cell-based, human; conditions: H460, 48 h
# Experimental: as §1, §2
# MRC5 = assay: Hoechst 33342 nuclear staining, MRC5; assay type: cell-based; design: key: 0 = no activity, 1 = weak (<50% of cells), 2 = strong (>50% of cells); conditions: MRC5, 48 h
# Experimental: as §1, §2
smiles,measurement,setting,value
CS(=O)(=O)O.Nc1ccc(C(=O)Cn2c(-n3ncnc3N)nc3ccccc32)cn1 [Example 15],Hoechst 33342 nuclear staining score,Jurkat; conc. 0.3 (μM),2 (score 2 relating to strong activity comprising more than 50% of the cells)
same,Hoechst 33342 nuclear staining score,Jurkat; conc. 1 (μM),2 (score 2 relating to strong activity comprising more than 50% of the cells)
same,Hoechst 33342 nuclear staining score,Jurkat; conc. 3 (μM),2 (score 2 relating to strong activity comprising more than 50% of the cells)
same,Hoechst 33342 nuclear staining score,Jurkat; conc. 10 (μM),2 (score 2 relating to strong activity comprising more than 50% of the cells)
same,Hoechst 33342 nuclear staining score,Jily; conc. 0.3 (μM),2 (score 2 relating to strong activity comprising more than 50% of the cells)
same,Hoechst 33342 nuclear staining score,Jily; conc. 1 (μM),2 (score 2 relating to strong activity comprising more than 50% of the cells)
same,Hoechst 33342 nuclear staining score,Jily; conc. 3 (μM),2 (score 2 relating to strong activity comprising more than 50% of the cells)
same,Hoechst 33342 nuclear staining score,Jily; conc. 10 (μM),2 (score 2 relating to strong activity comprising more than 50% of the cells)
same,Hoechst 33342 nuclear staining score,PBLs; conc. 0.3 (μM),0
same,Hoechst 33342 nuclear staining score,PBLs; conc. 1 (μM),0
same,Hoechst 33342 nuclear staining score,PBLs; conc. 3 (μM),0
same,Hoechst 33342 nuclear staining score,PBLs; conc. 10 (μM),0
same,Hoechst 33342 nuclear staining score,HeLa; conc. 0.3 (μM),2 (score 2 relating to strong activity comprising more than 50% of the cells)
same,Hoechst 33342 nuclear staining score,HeLa; conc. 1 (μM),2 (score 2 relating to strong activity comprising more than 50% of the cells)
same,Hoechst 33342 nuclear staining score,HeLa; conc. 3 (μM),2 (score 2 relating to strong activity comprising more than 50% of the cells)
same,Hoechst 33342 nuclear staining score,HeLa; conc. 10 (μM),2 (score 2 relating to strong activity comprising more than 50% of the cells)
same,Hoechst 33342 nuclear staining score,H460; conc. 0.3 (μM),2 (score 2 relating to strong activity comprising more than 50% of the cells)
same,Hoechst 33342 nuclear staining score,H460; conc. 1 (μM),2 (score 2 relating to strong activity comprising more than 50% of the cells)
same,Hoechst 33342 nuclear staining score,H460; conc. 3 (μM),2 (score 2 relating to strong activity comprising more than 50% of the cells)
same,Hoechst 33342 nuclear staining score,H460; conc. 10 (μM),2 (score 2 relating to strong activity comprising more than 50% of the cells)
same,Hoechst 33342 nuclear staining score,MRC5; conc. 0.3 (μM),1 (1 relating to weak activity comprising less than 50% of the cells)
same,Hoechst 33342 nuclear staining score,MRC5; conc. 1 (μM),1 (1 relating to weak activity comprising less than 50% of the cells)
same,Hoechst 33342 nuclear staining score,MRC5; conc. 3 (μM),1 (1 relating to weak activity comprising less than 50% of the cells)
same,Hoechst 33342 nuclear staining score,MRC5; conc. 10 (μM),1 (1 relating to weak activity comprising less than 50% of the cells)
"COc1ccc(C(=O)Cn2c(-n3ccc(N)n3)nc3ccccc32)cc1 [Example 2, 5-Amino-2-(1-[4-methoxyphenylcarbonylmethyl]benzimidazol-2-yl)-pyrazole]",Hoechst 33342 nuclear staining score,Jurkat; conc. 0.3 (μM),0
same,Hoechst 33342 nuclear staining score,Jurkat; conc. 1 (μM),0
same,Hoechst 33342 nuclear staining score,Jurkat; conc. 3 (μM),2 (score 2 relating to strong activity comprising more than 50% of the cells)
same,Hoechst 33342 nuclear staining score,Jurkat; conc. 10 (μM),2 (score 2 relating to strong activity comprising more than 50% of the cells)
same,Hoechst 33342 nuclear staining score,Jily; conc. 0.3 (μM),0
same,Hoechst 33342 nuclear staining score,Jily; conc. 1 (μM),2 (score 2 relating to strong activity comprising more than 50% of the cells)
same,Hoechst 33342 nuclear staining score,Jily; conc. 3 (μM),2 (score 2 relating to strong activity comprising more than 50% of the cells)
same,Hoechst 33342 nuclear staining score,Jily; conc. 10 (μM),2 (score 2 relating to strong activity comprising more than 50% of the cells)
same,Hoechst 33342 nuclear staining score,PBLs; conc. 0.3 (μM),0
same,Hoechst 33342 nuclear staining score,PBLs; conc. 1 (μM),0
same,Hoechst 33342 nuclear staining score,PBLs; conc. 3 (μM),0
same,Hoechst 33342 nuclear staining score,PBLs; conc. 10 (μM),2 (score 2 relating to strong activity comprising more than 50% of the cells)
same,Hoechst 33342 nuclear staining score,HeLa; conc. 0.3 (μM),0
same,Hoechst 33342 nuclear staining score,HeLa; conc. 1 (μM),0
same,Hoechst 33342 nuclear staining score,HeLa; conc. 3 (μM),2 (score 2 relating to strong activity comprising more than 50% of the cells)
same,Hoechst 33342 nuclear staining score,HeLa; conc. 10 (μM),2 (score 2 relating to strong activity comprising more than 50% of the cells)
same,Hoechst 33342 nuclear staining score,H460; conc. 0.3 (μM),0
same,Hoechst 33342 nuclear staining score,H460; conc. 1 (μM),0
same,Hoechst 33342 nuclear staining score,H460; conc. 3 (μM),2 (score 2 relating to strong activity comprising more than 50% of the cells)
same,Hoechst 33342 nuclear staining score,H460; conc. 10 (μM),2 (score 2 relating to strong activity comprising more than 50% of the cells)
same,Hoechst 33342 nuclear staining score,MRC5; conc. 0.3 (μM),0
same,Hoechst 33342 nuclear staining score,MRC5; conc. 1 (μM),0
same,Hoechst 33342 nuclear staining score,MRC5; conc. 3 (μM),0
same,Hoechst 33342 nuclear staining score,MRC5; conc. 10 (μM),0
